Measurements reported in patent publication US20060223812A1, “Treating neurodegenerative conditions” (MAX-PLANCK-GESELLSCHAFT ZUR FORDERUNGDER WISSENSCHAFTEN, …, priority 2004, published 2006).

Assays:
[1] = target: T1, PHFs from htau23 (Homo sapiens, UniProt P10636); experiment: Filter trapping assay, depolymerisation of PHFs; format: biochemical; details: PVDF filter, antibody K9JA
T1 construct: made in house; host or cells: E. coli
Protocol: The effect of compounds on the depolymerisation of PHFs was analysed using a filter trapping assay. This assay monitors aggregated tau which is trapped on a membrane filter, whereas the soluble protein is washed through. Therefore the technique preferably detects larger filaments, similar to the ThS assay.
Aggregates of tau were trapped by filtration through a PVDF-membrane (pore diameter 0.45 μm, Schleicher and Schuell, Düren, Germany) adapted to 96-well dot blot apparatus. The PVDF-membrane was wetted with methanol and rinsed with PBS-buffer before incorporated into the dot blot apparatus. The samples were pipetted into 100 μl of PBS and filtered. The membrane was washed three times with PBS before taken out of the apparatus and blocked with 5% milk powder in PBS for 30 minutes in a rotational shaker at room temperature. The polyclonal antibody K9JA was used as primary antibody and incubated at a dilution of 1:20.000 at room temperature for one hour. […] After three times washing with TBS-Tween the signal was detected using the ECL system (Amersham Pharmacia) and pictures were taken with the digital gel documentation system Fuji film BAS3000 (Raytest, Straubenhardt, Germany). Quantification of the signals was performed with the AIDA-software package (Raytest, Straubenhardt, Germany).
(D) Depolymerisation of PHFs from htau23 measured by filter assay. […]

[2] = tested on: N2a cells expressing K18/ΔK280; experiment: Tau aggregation in cells, sarkosyl extraction and Western blot densitometry; format: cell-based, mouse; details: 15 μM emodin
Source text: A crucial test for the application of inhibitors is their effect in cell models of tauopathy. A neuroblastoma (N2a) cell line which allows inducible expression of the tau construct K18ΔK280 under the control of the tet-on transactivator was generated. This construct was chosen because it contains the FTDP17 mutation ΔK280 in the 4-repeat domain K18 which promotes the formation of β-structure and therefore aggregates readily, even in the absence of polyanionic inducers (von Bergen et al., 2001; {Barghorn, 2002).
The tau construct K18/ΔK280 was expressed in the mouse neuroblastoma cell line N2a in an inducible manner under the control of the reverse tetracycline-controlled transactivator (rtTA) as described elsewhere (Gossen & Bujard, 2002). […] After 3-7 days the cells were harvested and tested for tau aggregation, thioflavin S fluorescence, and viability.
The levels and solubility of the K18/ΔK280 tau protein were determined by the method of Greenberg and Davies (1990) which makes use of the insolubility of protein aggregates after treatment with sarkosyl. The supernatant and sarcosyl-insoluble pellets were analysed by Western blotting with the pan-tau antibody K9JA and analysed by densitometry. Aggregation of tau in cells was tested by the fluorescence of thioflavine S. ThS signals were scored in three independent fields containing 40 cells each. […]

[3] = tested on: PHFs from K18/ΔK280/Y310W; experiment: Tryptophan fluorescence depolymerisation assay, K18/ΔK280; format: biochemical, human; details: 60 μM compound
Protocol: For the fluorescence depolymerisation assay, 60 μM inhibitor compound were added to pre-formed PHFs (10 μM) and incubated overnight at 37° C. PHFs were formed by incubation of tau construct K19/Y310W (50 μM) or K18/ΔK280/Y310W with 12.5 μM heparin in volume of 100 μl at 37° C. in PBS, pH 7.4. Incubation time was three days. The formation of aggregates was observed as a shift of the emission maximum from ˜354 nm to ˜340 nm.
FIG. 5: Disassembly of preformed PHFs measured by tryptophan fluorescence shift assay and filter assay. Experiments were performed with tau constructs containing the Y310W mutation as in FIG. 3.

T1 sequence (P10636 1-352 isoform P10636-2): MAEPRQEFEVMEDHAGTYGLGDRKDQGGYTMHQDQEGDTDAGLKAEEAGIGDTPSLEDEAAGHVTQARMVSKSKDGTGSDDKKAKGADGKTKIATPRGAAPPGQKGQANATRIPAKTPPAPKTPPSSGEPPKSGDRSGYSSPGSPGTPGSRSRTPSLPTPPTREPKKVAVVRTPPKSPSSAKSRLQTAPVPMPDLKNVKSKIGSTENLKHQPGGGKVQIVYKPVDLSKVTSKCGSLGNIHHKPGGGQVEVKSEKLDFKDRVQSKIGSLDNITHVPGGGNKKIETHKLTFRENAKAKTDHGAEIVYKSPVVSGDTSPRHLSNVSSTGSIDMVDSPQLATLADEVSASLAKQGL

Cc1cc(O)c2c(c1)C(=O)c1cc(O)cc(O)c1C2=O [Emodin, 1,3,8-Trihydroxy-6-methyl-anthraquinone]
DC50 [1]: ~500 nM
reduction of sarkosyl-insoluble fraction ([2]; 7 days): 5 fold
sarkosyl-insoluble fraction of total cellular tau (K18/ΔK280) ([2]; 7 days induction, untreated 14%): 3%

O=C(c1ccccc1)c1ccc(O)c(O)c1O [PHF005, 1-Phenyl-1-(2,3,4-trihydroxy-phenyl)-methanone]
depolymerising PHFs, K18/ΔK280, Trp fluorescence [3]: most potent agent
